Measurements published in ChEMBL document CHEMBL5154860 (J Med Chem, 2022).

Legend:
in vivo [1] = conditions: Sprague-Dawley, rat, brain / plasma, iv, 0.2 mg/kg
in vivo [2] = conditions: Sprague-Dawley, rat, brain / plasma, iv, 0.2 mg/kg; remark: listed apart in the source
in vitro [3] = conditions: human, liver microsomes
in vivo [4] = conditions: Sprague-Dawley, rat, po, 10 mg/kg
in vivo [5] = conditions: Sprague-Dawley, rat, iv, 1 mg/kg
in vivo [6] = conditions: Sprague-Dawley, rat, iv, 1 mg/kg; remark: listed apart in the source
in vivo [7] = conditions: Sprague-Dawley, rat, iv, 1 mg/kg; remark: listed apart in the source
in vivo [8] = conditions: Sprague-Dawley, rat, po, 10 mg/kg; remark: listed apart in the source
in vitro [9] = conditions: Sprague-Dawley, rat, liver microsomes
in vivo [10] = conditions: Sprague-Dawley, rat, iv, 1 mg/kg; remark: listed apart in the source
in vivo [11] = conditions: Sprague-Dawley, rat, iv, 1 mg/kg; remark: listed apart in the source
in vivo [12] = conditions: Sprague-Dawley, rat, po, 10 mg/kg; remark: listed apart in the source
in vivo [13] = conditions: Sprague-Dawley, rat, po, 10 mg/kg; remark: listed apart in the source
in vitro [14] = conditions: dog, MDCK-MDR1

SMILES | Kp (in vivo [1]) | Kp uu (in vivo [2]) | further results
Cn1ccnc1SCC1CCN(S(=O)(=O)c2ccc3ncsc3c2)CC1 | < 0.48 | < 0.5 | 
Cn1ccnc1SCC1CCN(S(=O)(=O)c2ccc3c(c2)CCO3)CC1 | 0.08 | 0.11 | CLint scaled at […], 1 µM (in vitro [3]): 1270 mL/min/kg
O=S(=O)(c1ccc2c(c1)CCO2)N1CCC(CSc2nccs2)CC1 | 0.27 | 0.23 | 
Cc1cn(C)c(SCC2CCN(S(=O)(=O)c3ccc4c(c3)CCO4)CC2)n1 | 0.07 | 0.19 | 
Cc1nc(SCC2CCN(S(=O)(=O)c3ccc4c(c3)CCO4)CC2)n(C)c1C | 0.22 | 0.32 | 
Cn1ccnc1SCC1CCN(S(=O)(=O)c2ccc3c(c2)OCO3)CC1 | 0.53 | 1.88 | 
Cn1ccnc1SC[C@H]1CCN(S(=O)(=O)c2ccc3c(c2)CCO3)C[C@@H]1F |  |  | Cmax at 24 h (in vivo [4]): 433 ng/mL; clearance at 24 h (in vivo [5]): 56.5 mL/min/kg; AUC at 24 h (in vivo [6]): 301 ng·h/mL; Vd at 24 h (in vivo [7]): 36.6 L/kg; bioavailability at 24 h (in vivo [8]): 27.6%; CLint scaled at […], 1 µM (in vitro [9]): 1770 mL/min/kg; half-life at 24 h (in vivo [10]): 14.6 h; MRT at 24 h (in vivo [11]): 10.7 h; CLint scaled at […], 1 µM (in vitro [3]): 318 mL/min/kg; Tmax at 24 h (in vivo [12]): 0.25 h; AUC at 24 h (in vivo [13]): 830 ng·h/mL; Papp (in vitro [14]): 26.8 ×10⁻⁶ cm/s
Cc1nnc(SCC2CCN(S(=O)(=O)c3ccc4c(c3)CCO4)CC2)s1 | 1.25 | 1.1 | 
CC(Sc1nccn1C)C1CCN(S(=O)(=O)c2ccc3c(c2)CCO3)CC1 (centres undefined) | 0.22 | 0.29 | 
